Laboratory results reported in paper PMC4336141, “Repurposing Auranofin as a Lead Candidate for Treatment of Lymphatic Filariasis and Onchocerciasis” (PLoS Neglected Tropical Diseases, 2015).
pIC50: −log10 of the molar value. Several values for one entry are separate records, joined by “and”; a condition that tells them apart may be missing. Equal entries are not always repeated. Entries after “also recorded” stand apart in the source; their conditions may differ.

Experiments:
[1] = test system: endogenous Brugia thioredoxin reductase; assay: Thioredoxin reductase activity of lysates of female B. malayi treated in vitro; format: biochemical, Brugia malayi; settings: 5 hours in vitro, female worms, soluble lysate
Protocol: Thioredoxin reductase activity of worm lysates was assayed using female B. malayi treated in vitro with either 0.3 μM, 0.1 μM, or 0.03 μM auranofin or 1% DMSO. After 5 hours of treatment, worm motility was measured using the Worminator, and then worms (24 in each group) were pooled, washed three times in PBS, and lysed by douncing in a glass homogenizer in assay buffer (Abcam Thioredoxin Reductase Assay kit, ab83463) with 1 mM PMSF. The crude lysates were centrifuged at 10,000 rcf for 15 minutes at 4°C to pellet insoluble material. The total protein concentrations of soluble lysates were measured using the Bradford assay. The soluble lysates were incubated for 20 minutes in assay buffer or assay buffer with a proprietary thioredoxin reductase specific inhibitor before adding a specific substrate, DTNB (5, 5′-dithiobis (2-nitrobenzoic) acid), and measuring activity at 20 second intervals for 40 minutes using the SpectraMax Plus Microplate Reader (Molecular Devices, Sunnyvale, CA) at λ = 412 nm. Lysates were tested in duplicate. TrxR activity was calculated based on the linear amount of TNB produced per minute per mg of total protein and adjusted for background activity from enzymes other than TrxR in the lysates.

[2] = Plasma gold levels (elemental gold analysis) in Brugia infected gerbils; format: in vivo, Mongolian gerbils (Meriones unguiculatus)
Protocol: Animal studies were performed under IACUC approval #AN085723–02 to test the efficacy of auranofin in vivo. Male Mongolian gerbils (Meriones unguiculatus, Charles River Laboratories International, Inc., Wilmington, MA) were injected intraperitoneally (IP) with 300 B. pahangi L3 (Filariatech, Inc., Athens, GA) and treated 3 months post-infection. Auranofin was dissolved in 100% ethanol at 4 mg/mL and mixed 1:1 with PBS. Vehicle doses consisted of the same mixture of ethanol and PBS but without auranofin. Doses (up to 200 μl) were given to gerbils orally at 5 mg/kg body weight, BID weekdays and SID weekends for a total of 48 doses over 4 weeks.
Two studies (Study 1 and Study 2) were conducted using the same protocols and the same dosing schedule except that in Study 1, two gerbils from the auranofin treatment group and two gerbils from the vehicle group were treated for 14 days and were necropsied 2 hours after their last dose (interim necropsy) to determine plasma gold levels (from auranofin). The remaining gerbils in Study 1 were treated for 28 days and were necropsied 11, 14, or 16 days after the end of dosing. In Study 2, all gerbils were treated for 28 days and were necropsied 16 days after the end of dosing. For both of these in vivo studies, worms were collected from the gerbil’s peritoneal cavity, counted, sexed and examined under a dissecting microscope. For each study a two-tailed Student’s T-test assuming equal variance was conducted using Microsoft Excel to determine the statistical significance of the difference in mean worm retrieval between the auranofin treated and vehicle treated groups. Gerbil blood was collected by cardiac puncture and plasma was sent to NMS Labs, Willow Grove, PA to determine plasma gold levels (elemental gold analysis) by graphite furnace atomic absorption spectroscopy.

[3] = set-up: method as in PMID 6417628; settings: patients with rheumatoid arthritis treated for an average of 6 months; cited from earlier work
O. ochengi microfilariae = assay: Onchocerca ochengi microfilariae motility in vitro; format: cell-based; settings: Day 5
Protocol: O. ochengi microfilariae were obtained from the umbilical skin of infected cattle and cultured on confluent monkey kidney epithelial cells for drug testing as previously described.
Microfilariae (10–15 per well) were cultured in 96-well culture plates in duplicate under the same conditions and drug concentrations as were used for the adult O. ochengi, except that 10 μg/mL ivermectin was used as a positive control. Microfilariae viability was visually scored based on motility reduction using the same scale described above for adult male O. ochengi. Scores were recorded every 24 hours after the addition of drugs for 5 days using an inverted microscope.

adult female B. pahangi = assay: Transmission electron microscopy of treated adult female B. pahangi; format: cell-based, Brugia pahangi; settings: auranofin 1 μM, 0.3 μM or 0.1 μM overnight, vs 1% DMSO
Protocol: (§1) Adult female B. pahangi worms were incubated with either 1 μM, 0.3 μM, or 0.1 μM auranofin, 10 μM flubendazole (as a positive control), or 1% DMSO overnight, then cut into 3 segments separating the anterior, middle and posterior sections. The middle sections were further cut into 1 mm sized pieces in fixative (2.5% glutaraldehyde and 2% paraformaldehyde in 0.1 M sodium cacodylate buffer, pH 7.3–7.4) and stored at 4°C. Middle sections were subsequently treated with 1% tannic acid for 1 hour, followed by three buffer washes before post fixation staining with 2% osmium tetroxide for 1 hour. The samples were washed three times in buffer before dehydration in an ethanol series. Worm sections were then infiltrated with propylene oxide, embedded in epon 812 resin and polymerized in a vacuum oven at 60°C overnight. Ultrathin sections were cut using an RMC MTX ultramicrotome with a Diatome diamond knife followed by post staining of the grids with saturated ethanolic uranyl acetate and Reynolds lead citrate. Samples were imaged on a FEI Tecnai 12 spirit TEM operated at 80 kV. A similar procedure was performed on adult female O. ochengi worm masses that were cultured for 7 days with 10 μM auranofin before fixation of cut pieces of the adult female mass. Untreated adult female masses cultured for 7 days and fixed by the same procedure served as the control.

adult female O. ochengi = assay: Transmission electron microscopy of treated adult female O. ochengi; format: cell-based, Onchocerca ochengi; settings: 10 μM, 7 days, vs untreated
Protocol: as §1

## CC[PH](CC)(CC)[Au][S][C@@H]1O[C@H](COC(C)=O)[C@@H](OC(C)=O)[C@H](OC(C)=O)[C@H]1OC(C)=O [auranofin, 2,3,4,6-tetra-O-acetyl-1-thio-beta-D-glucopyranosato-S (triethylphosphine) gold]
[1]; 0.03 μM
  Thioredoxin reductase activity, percent of DMSO control: 69%
[1]; 0.1 μM
  Thioredoxin reductase activity, percent of DMSO control: 33%
[1]; 0.3 μM
  Thioredoxin reductase activity, percent of DMSO control: 15%
[2]; Study 1, 16 days after the last dose
  mean plasma gold level: 701 nM
[2]; Study 2, 16 days after the last dose
  mean plasma gold level: 609 nM
[2]; Study #1, 2 hours after last dose, interim necropsy after 14 days of treatment, 5 mg/kg oral, individual gerbils, 5 mg/kg
  Plasma gold levels: 1700 µg/L and 1000 µg/L
[2]; Study #1, 11 days after last dose, 28 days of treatment
  Plasma gold levels: 270 µg/L
[2]; Study #1, 14 days after last dose, 28 days of treatment
  Plasma gold levels: 340 µg/L
[2]; Study #1, 16 days after last dose, individual gerbils, values less than 100 μg/L given as zero
  Plasma gold levels: 170 µg/L and 190 µg/L and 160 µg/L
[2]; Study #1, plasma, 2 hours after last dose, interim necropsy after 14 days of treatment, individual gerbils
  Concentration of gold: 5080 nM and 8630 nM and 8631 nM and 5077 nM
[2]; Study #1, plasma, 11 days after last dose
  Concentration of gold: 1371 nM
[2]; Study #1, plasma, 14 days after last dose
  Concentration of gold: 1726 nM
[2]; Study #1, plasma, 16 days after last dose, individual gerbils, values less than 508 nM given as zero
  Concentration of gold: 863 nM and 965 nM and 812 nM
[2]; Study #2, 16 days after last dose, individual gerbils, values less than 100 μg/L given as zero
  Plasma gold levels: 130 µg/L and 190 µg/L and 160 µg/L
[2]; Study #2, plasma, 16 days after last dose, individual gerbils, values less than 508 nM given as zero
  Concentration of gold: 660 nM and 965 nM and 812 nM
[2]; approximately 2 weeks after the last dose
  gold levels in blood: 0.66 µM
[3]
  side effects: few side effects, with the most common side effect being diarrhea
O. ochengi microfilariae
  pIC50: 5.52
Adult female B. pahangi
  ultrastructure (TEM) of adult female B. pahangi: considerable damage in the hypodermal region; also recorded: extensive damage to Wolbachia in the hypodermal area
Adult female O. ochengi
  ultrastructure (TEM) of adult female O. ochengi: Numerous vacuoles with inclusion bodies were observed in the muscle tissue below the hypodermal chord
